Patent publication US12527773B2, “Flavi-block: a pan-flavivirus inhibitor” (Baden-Württemberg Stiftung GmbH, priority 2020, dated 2026)
Where “and” joins values, the source holds several entries; their conditions need not be identical. Identical values can stand only once. Entries after “also recorded” stand apart in the source; their conditions may differ. Like-named read-outs stand apart in the source and are kept apart here.

Key:
HeLa-LC5-RIC cells = test: Cytotoxicity in HeLa-LC5-RIC cells (Cell Titer Glo); type: cell-based
Protocol: Cell viability was measured via the presence of ATP using the Promega Cell Titer Glo kit according to the manufacturer's instructions. Luminescence was detected using the Cytation3 by Biotek. […] (B) The same set of data as shown in FIG. 4A was plotted in a line graph. […] (D) As for FIG. 4A, Huh7.5 cells (1.0×10^4 cells/well) were seeded and incubated with C10 at the indicated concentrations for the indicated time points before measurement of viability using the Promega Cell Titer Glo kit.
It is shown that compound C10 is not toxic even a high concentrations of up to 40 μM.

KUNV = test: RT-qPCR analysis of virus genomes, KUNV; type: cell-based, Kunjin virus; conditions: West Nile virus
Protocol: Vero cells were infected with KUNV at an MOI of 1 for 2 h (post infection), after which virus was removed, and fresh maintenance medium containing 2% FCS together with the indicated concentration of C10 added. For co-treat condition, Vero cells were infected with KUNV at an MOI of 1 in the presence of C10 for 2 h, followed by removal of the virus/C10 inoculums, and addition of fresh 2% fetal calf serum maintenance medium.
(§1) Viral RNA was extracted using Isolate II RNA extraction kit (Bioline), and the absolute number of RNA copies determined by Taqman One Step RT-qPCR (Applied Biosystems) by extrapolation from a standard curve generated from in vitro—transcribed virus RNA.
(§2) It was decided to test the ability of C10 to inhibit the flaviviruses DENV1-4, KUNV and ZIKV, in addition to the paramyxovirus RSV, as a control.

RSV = test: RT-qPCR analysis of virus genomes, RSV; type: cell-based; conditions: human respiratory syncytial virus, c.t., read-out: EC50 from RT-qPCR analysis
Description: as §1, §2

[1] = system: hematopoietic stem cell formation; test: Effect on zebrafish hematopoietic stem cell formation (in situ runx-1+c-myb); type: in vivo; conditions: 36 hpf
Protocol: Zebrafish embryos were exposed 20-30 min after fertilization to differing concentrations of the compounds C10 and D1 (5 μM; 15 μM; 25 μM) or to medium containing the corresponding solvent (DMSO) concentration. Therefore, 3-5 embryos were sorted into each of three wells of a 96 well plate containing 200 μl of medium. For phenotype analysis, triplicates were imaged after 6-7 h post fertilization (hpf) at approximately shield stage, after 24 hpf and after 48 hpf. Dead +unfertilized embryos were removed. For imaging at 24 hpf +48 hpf; embryos were anesthetized using MESAB. (A) Diagramm showing the percentage of embryos at each time point either developing normal (blue color) or with the indicated phenotype. (B) representative images of embryos treated with the indicated compounds, or controls at the respective time points. (C) To additionally elucidate the influence on hematopoietic stem cell formation, approx. half of the embryos were sampled at 36 hpf and an in situ staining for runx-1+c-myb was performed. Shown are representative images of hematopoietic stem cell formation with the treatment indicated.
Embryos were exposed 20-30 min after fertilization to differing concentrations of the compounds C10 and D1 (5 μM; 15 μM; 25 μM) or to medium containing the corresponding solvent (DMSO) concentration. […]

[2] = Pharmacokinetic study in Balb/c mice, intravenous administration; type: in vivo; design: Kel (Lambda_z): unit not given here; conditions: for Plasma concentration, Group A-D: single animals; for half-life: iv
Protocol: Study design, animal selection, handling and treatment were all in accordance with the study protocols and institutional animal care and use guidelines. Male Balb/c mice (9-10 weeks old, body weight 22.3 to 38.1 g and average body weight across all groups 31.4 g, SD=3.20 g) were used in this study. The animals were randomly assigned to the treatment groups before the pharmacokinetic study; all animals were fasted for 4 h before dosing. Six time points for PO (15, 30, 60, 120, 240 and 360 min) and IV (5, 15, 30, 60, 120 and 240 min) routes were used in this pharmacokinetic study. Each of the PO and IV time point treatment groups included 4 animals. There was also control group of 2 animals. Dosing was done according to the treatment schedules outlined in Table 3. Mice were injected IV with 2,2,2-tribromoethanol at the dose of 150 mg/kg prior to taking blood. Blood collection was performed from the orbital sinus in microtainers containing K2EDTA. Animals were sacrificed by cervical dislocation after blood samples collection. All samples were immediately prepared, flash-frozen and stored at −70° C. until subsequent bioanalysis.
Samples Processing Plasma samples ([…]) were mixed with […] of IS solution. After mixing by pipetting and centrifuging for 4 min at 6,000 rpm, […] of each supernatant was injected into LC-MS/MS system. Solution of compound IS-02-03 (200 ng/ml in acetonitrile-methanol mixture, 1:1, v/v) was used as internal standard (IS) for quantification of C10 in plasma samples. Samples Analysis The concentrations of C10 were determined using high performance liquid chromatography/tandem mass spectrometry (HPLC-MS/MS). Shimadzu H PLC system comprised of 2 isocratic pumps LC-10Advp, an autosampler SIL-HTc, a sub-controller FCV-14AH and a degasser DGU-14A. Mass spectrometric analysis was performed using an API 3000 (triple-quadrupole) instrument from AB Sciex (Canada) with an electro-spray (ESI) interface. The data acquisition and system control was performed using Analyst 1.5.2 software from AB Sciex. HPLC-MS/MS Conditions
The pharmacokinetic data analysis was performed using non-compartmental, bolus injection or extravascular input analysis models in WinNonlin 5.2 (PharSight). Data below LLOQ were presented as missing to improve validity of T1/2 calculations. No outlier data points were removed from calculations. The bioavailability for the peroral route was calculated as: […]

[3] = male, Balb/c, mouse, plasma, IV 5 mg/kg

SMILES: CCN1/C(=C\C=C\c2sc3cc(NC(C)=O)ccc3[n+]2CC)Sc2cc(NC(C)=O)ccc21.[I-] [C10, 6-acetamido-2-((1E,3E)-3-(6-acetamido-3-ethylbenzo[d]thiazol-2(3H)-ylidene)prop-1-en-1-yl)-3-ethylbenzo[d]thiazol-3-ium iodide]
- cytotoxicity (HeLa-LC5-RIC cells): not toxic
- EC50 (KUNV; read-out: EC50 from RT-qPCR analysis, KUNV, c.t.): 310 ± 180 nM
- EC50 (KUNV; read-out: EC50 from RT-qPCR analysis, KUNV, p.i.): 1680 ± 640 nM
- EC50 (RSV): 830 ± 970 nM
- hematopoietic stem cell formation [1]: no difference to the WT embryos
- Kel (Lambda_z) ([2]; IV 5 mg/kg): 0.00581
- Vd (Vz_obs) ([2]; IV 5 mg/kg): 14.1 L/kg
- Plasma concentration, Mean ([2]; IV 5 mg/kg, 5 min): 2690 ng(ml)
- Plasma concentration, Group A-D ([2]; IV 5 mg/kg, 5 min, 5 mg/kg): 2780 ng(ml) and 2310 ng(ml) and 2606 ng(ml) and 3063 ng(ml)
- Plasma concentration, Mean ([2]; IV 5 mg/kg, 15 min): 311 ng(ml)
- Plasma concentration, Group A-D ([2]; IV 5 mg/kg, 15 min, 5 mg/kg): 185 ng(ml) and 316 ng(ml) and 521 ng(ml) and 221 ng(ml)
- Plasma concentration, Mean ([2]; IV 5 mg/kg, 30 min): 154 ng(ml)
- Plasma concentration, Group A-D ([2]; IV 5 mg/kg, 30 min, 5 mg/kg): 109 ng(ml) and 152 ng(ml) and 189 ng(ml) and 164 ng(ml)
- Plasma concentration, Mean ([2]; IV 5 mg/kg, 60 min): 109 ng(ml)
- Plasma concentration, Group A-D ([2]; IV 5 mg/kg, 60 min, 5 mg/kg): 93 ng(ml) and 160 ng(ml) and 89 ng(ml) and 92 ng(ml)
- Plasma concentration, Mean ([2]; IV 5 mg/kg, 120 min): 60 ng(ml)
- Plasma concentration, Group A-D ([2]; IV 5 mg/kg, 120 min, 5 mg/kg): 69 ng(ml) and 44 ng(ml) and 59 ng(ml) and 67 ng(ml)
- Plasma concentration, Mean ([2]; IV 5 mg/kg, 240 min): 43 ng(ml)
- Plasma concentration, Group A-D ([2]; IV 5 mg/kg, 240 min, 5 mg/kg): 47 ng(ml) and 43 ng(ml) (2×) and 40 ng(ml)
- tolerability in mice ([2]; IV, 5 mg/kg): tolerated; also recorded: not toxic at high concentrations
- Vd ([2]; male, Balb/c, mouse, plasma, 5 mg/kg, calculated, IV, read-out: volume of distribution): 14.1 L/kg
- half-life ([2]; male, Balb/c, mouse, plasma, 5 mg/kg, IV 5 mg/kg, read-out: T1/2 (HL_Lambda_z)): 1.98 h
- half-life ([2]; male, Balb/c, mouse, plasma, 5 mg/kg, mice, IV administration, read-out: half-life in plasma/serum (converted)): ~2 h
- Cmax [2, 3]: 2690 ng/mL
- Tmax [2, 3]: 5 min
- AUC(0-t) ([2]; male, Balb/c, mouse, plasma, IV 5 mg/kg, read-out: AUC0→t = 240 min (AUClast) (converted)): 892 ng·h/mL
- AUC(0-inf) ([2]; male, Balb/c, mouse, plasma, IV 5 mg/kg, read-out: AUC0→∞ (AUCINF_obs) (converted)): 1020 ng·h/mL
- clearance ([2]; male, Balb/c, mouse, plasma, IV 5 mg/kg, read-out: CL (Cl_obs)): 82.1 mL/min/kg
- MRT inf ([2]; male, Balb/c, mouse, plasma, IV 5 mg/kg, read-out: MRT (MRTinf) (converted)): 1.36 h
- MRT last ([2]; male, Balb/c, mouse, plasma, IV 5 mg/kg, read-out: MRT (MRTlast) (converted)): 0.59 h
